Measurements taken from ChEMBL document CHEMBL1155951 (Bioorg Med Chem Lett, 2008).

system: Plasmodium falciparum; test: Antiplasmodial activity against chloroquine-resistant Plasmodium falciparum W2 gametocytes after 48 hrs by microscopy; format: functional, organism-based; details: W2, 48 h

In order of rising IC50:
1. COc1cc2cccnc2c2nc(C)c3ccoc3c12  3.75 µM
2. Cc1nc2c(ccc3cccnc32)c2occc12  5.5 µM
3. COc1cc2cccnc2c2nc(C)c3cc[nH]c3c12  9.8 µM
4. Cc1nc2c(ccc3cccnc32)c2[nH]ccc12  10.6 µM

system: Plasmodium falciparum; test: Antiplasmodial activity against chloroquine-resistant Plasmodium falciparum W2 after 48 hrs by [3H]hypoxanthine uptake; format: functional, organism-based; details: not given

In order of falling IC50:
1. COc1cc2cccnc2c2nc(C)c(CCCl)c(Cl)c12  6.56 µM
2. Cc1nc2c(ccc3cccnc32)c2[nH]ccc12  4.17 µM
3. COc1cc2cccnc2c2nc(C)c3cc[nH]c3c12  1.28 µM
4. Cc1nc2c(ccc3cccnc32)c2occc12  1.1 µM
5. COc1cc2cccnc2c2nc(C)c3ccoc3c12  0.93 µM

system: Plasmodium falciparum; test: Antiplasmodial activity against chloroquine-resistant Plasmodium falciparum FcM29 after 48 hrs by [3H]hypoxanthine uptake; format: functional, organism-based; details: not given

In order of rising IC50:
1. Cc1nc2c(ccc3cccnc32)c2occc12  0.38 µM
2. COc1cc2cccnc2c2nc(C)c3ccoc3c12  0.48 µM
3. COc1cc2cccnc2c2nc(C)c3cc[nH]c3c12  1.28 µM
4. COc1cc2cccnc2c2nc(C)c(CCCl)c(Cl)c12  5 µM
5. Cc1nc2c(ccc3cccnc32)c2[nH]ccc12  9.36 µM

system: not listed separately; test: Selectivity index, ratio of IC50 for african green monkey (Cercopithecus aethiops) Vero cells to IC50 for chloroquine-resistant Plasmodium falciparum FcM29; format: toxicity, cell-based; details: read-out: Ratio IC50

In order of rising selectivity ratio:
1. Cc1nc2c(ccc3cccnc32)c2[nH]ccc12  7
2. COc1cc2cccnc2c2nc(C)c3cc[nH]c3c12  23
3. Cc1nc2c(ccc3cccnc32)c2occc12  99
4. COc1cc2cccnc2c2nc(C)c3ccoc3c12  129

system: not listed separately; test: Selectivity index, ratio of IC50 for african green monkey (Cercopithecus aethiops) Vero cells to IC50 for chloroquine-resistant Plasmodium falciparum FcB1; format: toxicity, cell-based; details: read-out: Ratio IC50

In order of rising selectivity ratio:
1. COc1cc2cccnc2c2nc(C)c3ccoc3c12  39
2. Cc1nc2c(ccc3cccnc32)c2occc12  39
3. Cc1nc2c(ccc3cccnc32)c2[nH]ccc12  54
4. COc1cc2cccnc2c2nc(C)c3cc[nH]c3c12  132

system: Plasmodium falciparum; test: Antiplasmodial activity against chloroquine-resistant Plasmodium falciparum FcB1 after 48 hrs by [3H]hypoxanthine uptake; format: functional, organism-based; details: FcB1/Columbia

In order of rising IC50:
1. COc1cc2cccnc2c2nc(C)c3cc[nH]c3c12  0.22 µM
2. COc1cc2cccnc2c2nc(C)c3ccoc3c12  0.93 µM
3. Cc1nc2c(ccc3cccnc32)c2occc12  0.97 µM
4. Cc1nc2c(ccc3cccnc32)c2[nH]ccc12  1.14 µM
5. COc1cc2cccnc2c2nc(C)c(CCCl)c(Cl)c12  4.84 µM

system: not listed separately; test: Selectivity index, ratio of IC50 for african green monkey (Cercopithecus aethiops) Vero cells to IC50 for chloroquine-sensitive Plasmodium falciparum F32; format: toxicity, cell-based; details: read-out: Ratio IC50

In order of rising selectivity ratio:
1. Cc1nc2c(ccc3cccnc32)c2occc12  32
2. Cc1nc2c(ccc3cccnc32)c2[nH]ccc12  47
3. COc1cc2cccnc2c2nc(C)c3ccoc3c12  72
4. COc1cc2cccnc2c2nc(C)c3cc[nH]c3c12  72

system: not listed separately; test: Selectivity index, ratio of IC50 for african green monkey (Cercopithecus aethiops) Vero cells to IC50 for chloroquine-resistant Plasmodium falciparum W2; format: toxicity, cell-based; details: read-out: Ratio IC50

In order of falling selectivity ratio:
1. COc1cc2cccnc2c2nc(C)c3ccoc3c12  66
2. Cc1nc2c(ccc3cccnc32)c2occc12  34
3. COc1cc2cccnc2c2nc(C)c3cc[nH]c3c12  23
4. Cc1nc2c(ccc3cccnc32)c2[nH]ccc12  15

system: Plasmodium falciparum; test: Antiplasmodial activity against chloroquine-sensitive Plasmodium falciparum F32 after 48 hrs by [3H]hypoxanthine uptake; format: functional, organism-based; details: not given

In order of rising IC50:
1. COc1cc2cccnc2c2nc(C)c3cc[nH]c3c12  0.41 µM
2. COc1cc2cccnc2c2nc(C)c3ccoc3c12  0.86 µM
3. Cc1nc2c(ccc3cccnc32)c2occc12  1.18 µM
4. Cc1nc2c(ccc3cccnc32)c2[nH]ccc12  1.31 µM
5. COc1cc2cccnc2c2nc(C)c(CCCl)c(Cl)c12  7.71 µM

system: Vero; test: Cytotoxicity against african green monkey Vero cells assessed as [3H]hypoxanthine incorporation after 48 hrs; format: cell-based; details: Chlorocebus sabaeus

In order of rising IC50:
1. COc1cc2cccnc2c2nc(C)c3cc[nH]c3c12  29.8 µM
2. Cc1nc2c(ccc3cccnc32)c2occc12  37.6 µM
3. Cc1nc2c(ccc3cccnc32)c2[nH]ccc12  61.6 µM
4. COc1cc2cccnc2c2nc(C)c3ccoc3c12  62.2 µM
5. COc1cc(NC(C)CCCN)c2ncccc2c1 (stereo not given) [PRIMAQUINE]  340 µM
